pIC50: −log10 of the molar value.
Experiments:
[1] = biological target: T1, Btk (Homo sapiens, UniProt Q06187); test: Btk in vitro inhibitory activity (one of Method A TR-FRET, Method B electrophoretic mobility shift, Method C radiometric filter binding); format: biochemical; details: wild-type Btk; read-out: Btk-WT IC50
T1 construct: purified from insect cells as a full-length construct containing a N-terminal 6X-His tag; His6 (N); made in house; host or cells: insect cells (Method C)
Method: Example 62a: Btk In Vitro Inhibitory Activity (Method A)
Btk kinase activity is determined using a time-resolved fluorescence resonance energy transfer (TR-FRET) methodology. Measurements are performed in a reaction volume of 50 μL using 96-well assay plates. […] The reaction is quenched by the addition of 1.2 equivalents of EDTA (relative to divalent cation) in 25 μL of 1× Lance buffer (Perkin-Elmer). Streptavidin-APC (Perkin-Elmer) and Eu-labeled p-Tyr100 antibody (Perkin-Elmer) in 1× Lance buffer are added in a 25 μL volume to give final concentrations of 100 nM and 2.5 nM, respectively, and the mixture is allowed to incubate for one hour. The TR-FRET signal is measured on a multimode plate reader with an excitation wavelength (λEx) of 330 nm and detection wavelengths (λEm) of 615 and 665 nm. Activity is determined by the ratio of the fluorescence at 665 nm to that at 615 nm. For each compound, enzyme activity is measured at various concentrations of compound. Negative control reactions are performed in the absence of inhibitor in replicates of six, and two no-enzyme controls are used to determine baseline fluorescence levels. Inhibition constants, Ki(app), were obtained using the program BatchKi (Kuzmic et al. (2000), Anal. Biochem. 286:45-50). IC50s are obtained according to the equation:
IC50={Ki(app)/(1+[ATP]/Km^ATP)}+[E]total/2;
For all kinases, [ATP]=Km^ATP, [Btk]total=0.5 nM and [Lck]total=6 nM.
Example 62b: Btk In Vitro Inhibitory Activity (Method B)
Kinase activity is measured in vitro using electrophoretic mobility shift assay. The kinase reactions are assembled in a total volume of 25 μL in 384 well plates. The reactions comprise: BTK enzyme (1 nM, N-terminal His6-tagged, recombinant, full-length, human BTK purified from baculovirus Sf21 insect cell system, 293HEK, or other suitable source), inhibitor, ATP, fluorescently labeled peptide substrate (1 μM, FAM-GEEPLYWSFPAKKK-NH2) in a reaction buffer composed of 100 mM HEPES, pH7.5, 5 mM MgCl2 1 mM DTT, 0.1% bovine serum albumin, 0.01% Triton X-100, and 1% DMSO. The reaction is incubated and is quenched by the addition of termination buffer (100 mM HEPES, pH 7.5, 0.01% Triton X-100, 30 mM EDTA). The terminated reactions are analyzed using a 12 channel LabChip® 3000 microfluidic detection instrument (Caliper Life Sciences). The enzymatic phosphorylation of the peptide results in a change in net charge, enabling electrophoretic separation of product from substrate peptide. As substrate and product peptides are separated, two peaks of fluorescence are observed. Change in the relative fluorescence intensity of the substrate and product peaks is the parameter measured, reflecting enzyme activity. In the presence of an inhibitor, the ratio between product and substrate is altered: the signal of the product decreases, while the signal of the substrate increases.
Activity in each sample is determined as the product to sum ratio (PSR):P/(S+P), where P is the peak height of the product peptide and S is the peak height of the substrate peptide. For each compound, enzyme activity is measured at various concentrations (12 concentrations of compound spaced by 3× dilution intervals). Negative control samples (0%—inhibition in the absence of inhibitor) and positive control samples (100%—inhibition, in the presence of 20 mM EDTA) are assembled in replicates of four and are used to calculate %—inhibition values for each inhibitor at each concentration. Percent inhibition (Pinh) is determined using following equation:
Pinh=(PSR0%−PSRinh)/(PSR0%−PSR100%)*100, where PSRinh is the product sum ratio in the presence of inhibitor, PSR0% is the average product sum ration in the absence of inhibitor and PSR100% is the average product sum ratio in 100%—inhibition control samples.
The IC50 values of inhibitors are determined by 4 parameter sigmoidal dose-response model fitting of the inhibition curves (Pinh versus inhibitor concentration) using XLfit 4 software. […]

[2] = biological target: T2, TEC (Homo sapiens, UniProt P42680); test: Inhibition of a panel of kinases (in vitro HotSpot kinase assay, 33P-ATP, 1 μM ATP); format: biochemical; details: for TEC/Btk: ratio of TEC IC50 to Btk IC50 (selectivity); for pIC50: HotSpot kinase assay, 1 μM ATP
T2 sequence (P42680 1-631): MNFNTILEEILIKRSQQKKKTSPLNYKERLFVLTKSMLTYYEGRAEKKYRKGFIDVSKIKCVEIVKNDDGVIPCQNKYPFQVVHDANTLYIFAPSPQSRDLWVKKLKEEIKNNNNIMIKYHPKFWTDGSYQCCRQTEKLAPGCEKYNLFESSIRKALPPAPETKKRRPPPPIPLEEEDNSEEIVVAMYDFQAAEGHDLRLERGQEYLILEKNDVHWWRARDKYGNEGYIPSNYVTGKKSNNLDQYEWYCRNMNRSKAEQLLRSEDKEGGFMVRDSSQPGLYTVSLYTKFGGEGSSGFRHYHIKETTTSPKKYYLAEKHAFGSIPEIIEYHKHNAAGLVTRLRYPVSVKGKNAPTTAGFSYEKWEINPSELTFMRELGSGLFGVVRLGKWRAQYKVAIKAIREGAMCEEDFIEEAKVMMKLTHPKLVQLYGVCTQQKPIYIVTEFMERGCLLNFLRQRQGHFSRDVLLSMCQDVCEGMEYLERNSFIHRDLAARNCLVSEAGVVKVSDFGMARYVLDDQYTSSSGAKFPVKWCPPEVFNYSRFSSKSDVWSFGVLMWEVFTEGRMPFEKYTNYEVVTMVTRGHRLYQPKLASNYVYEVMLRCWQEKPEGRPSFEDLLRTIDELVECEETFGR
Method: Example 63: Inhibition of a Panel of Kinases The degree of inhibition of a panel of kinases is determined using the in vitro HotSpot kinase assay (purified enzymes, ^33P-ATP, an appropriate substrate and 1 μM ATP).

T1 sequence (Q06187 whole entry): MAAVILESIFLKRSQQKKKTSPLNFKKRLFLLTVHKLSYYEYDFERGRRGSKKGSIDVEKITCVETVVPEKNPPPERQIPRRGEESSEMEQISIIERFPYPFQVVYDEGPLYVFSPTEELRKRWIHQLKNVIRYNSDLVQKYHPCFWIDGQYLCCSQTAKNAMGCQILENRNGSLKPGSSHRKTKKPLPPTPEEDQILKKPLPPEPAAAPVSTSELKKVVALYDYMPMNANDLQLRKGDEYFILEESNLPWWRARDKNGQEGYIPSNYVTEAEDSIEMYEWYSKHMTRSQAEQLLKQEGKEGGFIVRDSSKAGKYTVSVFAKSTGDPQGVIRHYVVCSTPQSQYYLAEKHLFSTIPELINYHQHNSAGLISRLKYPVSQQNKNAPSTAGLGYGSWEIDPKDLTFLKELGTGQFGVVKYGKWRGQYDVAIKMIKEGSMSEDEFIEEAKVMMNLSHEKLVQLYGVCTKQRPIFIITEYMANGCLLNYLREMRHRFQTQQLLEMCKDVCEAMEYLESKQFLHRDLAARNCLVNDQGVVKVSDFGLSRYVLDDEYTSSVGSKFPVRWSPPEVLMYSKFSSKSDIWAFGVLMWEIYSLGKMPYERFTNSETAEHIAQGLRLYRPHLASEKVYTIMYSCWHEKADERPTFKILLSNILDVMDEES

pIC50 [1] | TEC/Btk [2] | pIC50 [2] | Compound
6.49 | – | – | CC1(C)Cc2cc3n(c2C1)CCN(c1nccc(-c2ccnc4[nH]nc(NC5CCNC5)c24)c1CO)C3=O (stereo not shown) [Example 297, 2-[3-(hydroxymethyl)-4-{3-[(pyrrolidin-3-yl)amino]-1H-pyrazolo[3,4-b]pyridin-4-yl}pyridin-2-yl]-7,7-dimethyl-3,4,7,8-tetrahydro-2H-cyclopenta[4,5]pyrrolo[1,2-a]pyrazin-1(6H)-one]
6.76 | – | – | CN(C)C(=O)N1CC[C@@H](Nc2n[nH]c3nccc(-c4ccnc(N5CCn6c(cc7c6CC(C)(C)C7)C5=O)c4CO)c23)C1 [Example 299, (3R)-3-({4-[2-(7,7-dimethyl-1-oxo-1,3,4,6,7,8-hexahydro-2H-cyclopenta[4,5]pyrrolo[1,2-a]pyrazin-2-yl)-3-(hydroxymethyl)pyridin-4-yl]-1H-pyrazolo[3,4-b]pyridin-3-yl}amino)-N,N-dimethylpyrrolidine-1-carboxamide]
6.81 | – | – | C[C@H]1CC[C@@H](N)CN1c1n[nH]c2nccc(-c3ccc(CNC(=O)c4cc(C(C)(C)C)on4)c(F)c3)c12 [Example 322, N-[(4-{3-[(2S,5R)-5-amino-2-methylpiperidin-1-yl]-1H-pyrazolo[3,4-b]pyridin-4-yl}-2-fluorophenyl)methyl]-5-tert-butyl-1,2-oxazole-3-carboxamide]
6.29 | – | – | CN(C)C(=O)N1CC[C@@H](Nc2n[nH]c3nccc(-c4ccc(CNC(=O)c5coc(C6CCC6)n5)c(F)c4)c23)C1 [Example 328, 2-cyclobutyl-N-{[4-(3-{[(3R)-1-(dimethylcarbamoyl)pyrroli-din-3-yl]amino}-1H-pyrazolo[3,4-b]pyridin-4-yl)-2-fluorophenyl]methyl}-1,3-oxazole-4-carboxamide]
6.74 | – | – | CN1CCN(c2n[nH]c3nccc(-c4ccc(CNC(=O)c5nc(C(C)(C)C)no5)c(F)c4)c23)C(=O)C1=O [Example 381, 3-tert-butyl-N-({2-fluoro-4-[3-(4-methyl-2,3-dioxopiperazin-1-yl)-1H-pyrazolo[3,4-b]pyridin-4-yl]phenyl}methyl)-1,2,4-oxadiazole-5-carboxamide]

Further lines, the compound ahead of its results:

Compound | pIC50 [1] | TEC/Btk [2] | pIC50 [2]
CC(C)(C)c1ccc(C(=O)NCc2ccc(-c3ccnc4[nH]nc(N[C@H]5CC[C@H](O)CC5)c34)cc2F)cc1 [Compound 12, 4-tert-butyl-N-{[2-fluoro-4-(3-{[(1r,4r)-4-hydroxycyclohexyl]amino}-1H-pyrazolo[3,4-b]pyridin-4-yl)phenyl]methyl}benzamide] | 6.06 | 11 | –
CC(C)(O)c1ccc(C(=O)NCc2ccc(-c3ccnc4[nH]nc(N[C@H]5CC[C@H](O)CC5)c34)cc2F)cc1 [Compound 26, N-{[2-fluoro-4-(3-{[(1r,4r)-4-hydroxycyclohexyl]amino}-1H-pyrazolo[3,4-b]pyridin-4-yl)phenyl]methyl}-4-(2-hydroxypropan-2-yl)benzamide] | 6.03 | >100 | < 5.00
CC(C)(C)c1cc(C(=O)NCc2ccc(-c3ccnc4[nH]nc(N[C@H]5CC[C@H](O)CC5)c34)cc2F)no1 [Compound 27, 5-tert-butyl-N-{[2-fluoro-4-(3-{[(1r,4r)-4-hydroxycyclohexyl]amino}-1H-pyrazolo[3,4-b]pyridin-4-yl)phenyl]methyl}-1,2-oxazole-3-carboxamide] | 7.35 | 142 | 5.20
CC(C)(C)c1ccc2c(c1)CCN(Cc1ccc(-c3ccnc4[nH]nc(N[C@@H]5CCN(C=O)C5)c34)cc1F)C2=O [Compound 60, (3R)-3-[(4-{4-[(6-tert-butyl-1-oxo-1,2,3,4-tetrahydroisoquinolin-2-yl)methyl]-3-fluorophenyl}-1H-pyrazolo[3,4-b]pyridin-3-yl)amino]pyrrolidine-1-carbaldehyde] | 7.68 | – | 5.13
CCc1nc(C(=O)NCc2ccc(-c3ccnc4[nH]nc(N[C@@H]5CCNC5)c34)cc2F)no1 [Example 54] | < 5.00 | – | < 5.00
CC(C)(C)c1ccc(C(=O)NCc2ccc(-c3ccnc4[nH]nc(N[C@H]5CCN(C=O)C5)c34)cc2F)cc1 [Example 61, 4-tert-butyl-N-{[2-fluoro-4-(3-{[(3S)-1-formylpyrrolidin-3-yl]amino}-1H-pyrazolo[3,4-b]pyridin-4-yl)phenyl]methyl}benzamide] | 7.47 | 174 | 5.23
C[C@H](NC(=O)c1ccc(C(C)(C)C)cc1)c1ccc(-c2ccnc3[nH]nc(N[C@@H]4CCNC4)c23)cc1 [Example 91, 4-tert-butyl-N-[(1S)-1-[4-(3-{[(3R)-pyrrolidin-3-yl]amino}-1H-pyrazolo[3,4-b]pyridin-4-yl)phenyl]ethyl]benzamide] | < 5.00 | – | < 5.00
C[C@H](NC(=O)c1noc(C(C)(C)C)n1)c1ccc(-c2ccnc3[nH]nc(N[C@@H]4CCN(C(=O)N(C)C)C4)c23)cc1F [Example 291, 5-tert-butyl-N-{(1S)-1-[4-(3-{[(3R)-1-(dimethylcarbamoyl)pyrroli-din-3-yl]amino}-1H-pyrazolo[3,4-b]pyridin-4-yl)-2-fluorophenyl]ethyl}-1,2,4-oxadiazole-3-carboxamide] | 7.38 | – | –
CC(C)Cc1cc(C(=O)NCc2ccc(-c3ccnc4[nH]nc(N[C@@H]5CCCN(C(=O)N(C)C)[C@@H]5C)c34)cc2F)no1 [Example 306, (2R,3R)-3-({4-[3-fluoro-4-({[5-(2-methylpropyl)-1,2-oxazole-3-carbonyl]amino}methyl)phenyl]-1H-pyrazolo[3,4-b]pyridin-3-yl}amino)-N,N,2-trimethylpiperidine-1-carboxamide] | 6.27 | – | –
CN1C[C@@H](Nc2n[nH]c3nccc(-c4ccc(CNC(=O)c5nc(C(C)(C)C)no5)c(F)c4)c23)CC1=O [Example 392, 3-tert-butyl-N-{[2-fluoro-4-(3-{[(3S)-1-methyl-5-oxopyrrolidin-3-yl]amino}-1H-pyrazolo[3,4-b]pyridin-4-yl)phenyl]methyl}-1,2,4-oxadiazole-5-carboxamide] | 8.25 | – | –

— US20180194762A1 (Pharmacyclics LLC, priority 2017, published 2018)
